# Measurements from patent publication US20230029496A1, “AMINO ACID ALTERNATIVE CURING SYSTEM” (THE TEXAS A&M UNIVERSITY SYSTEM, priority 2019, published 2023).
# Values joined by “and” are separate entries in the source; they are usually repeats but may differ in a detail not shown here. Identical values can stand only once. Like-named read-outs stand apart in the source and are kept apart here. Marks after values point to notes of the source that are not given here.
# What was measured:
# NOS system [1] = test: NO-heme, total heme, nitrosylation in test beef frankfurters (Example 12); conditions: 156 ppm sodium nitrite with sodium erythorbate 547 ppm
# Protocol: (§1) The remaining nonmeat ingredients were added (except the antimicrobial) and chopped at 2000 rpm for one minute. Protecta (sodium acetate antimicrobial) was added and the emulsion chopped at 4000 rpm for one minute. The emulsion was evacuated and placed into a vacuum assisted stuffer where each test emulsion was stuffed and twist linked into 22 mm cellulose casings weighing 40 g each. The frankfurter links were hung on smokehouse trucks, placed into a commercial smokehouse and thermally processed to 160° F. (Table 18).
# (§2) After thermal processing and chilling (40° F.), the casings were peeled from the frankfurters and were vacuum packaged and stored under refrigerated conditions for residual nitrite and nitrosylation. […] This was done to determine if the L-arginine could the NOS system to generate sufficient NO for cure color development and residual nitrite for antioxidant and antimicrobial effect.
# [2] = system: nitric oxide synthase system; conditions: beef; for Residual Nitrite, LSMean main effect of Temperature: sodium nitrite
# Protocol: (§3) Fresh ground meat (beef, pork or poultry) was separated in ˜0.5 Kg batches and mixed with 2% salt and 10% added water. […] Each individual batch was mixed (1 min) in a food processor, removed for temperature and pH analyses and then placed into a jerky extruder tube. Approximately 25 g of sample were extruded into 50 mL centrifuge, then capped and labeled and placed into a controlled water batch and heated to a designated internal endpoint temperature (132, 158, or 165° F.).
# (§4) Samples also contained 547 ppm sodium erythorbate, a cure accelerator (Phase I) and without sodium erythorbate (Phase II). Samples were placed into test tubes and heated in a controlled water bath to 132, 158 and 165° F. Samples were held in a 40° F. cooler for seven days then tested for residual nitrite. Residual nitrite was tested after deproteinization for amino acid analysis by HPLC. Determination of nitrite (UV/VIS Spectrophotometric Method) was used to detect any residual nitrite for best results in detecting minute amounts of nitrite. Residual nitrite levels were read in a 96 well plate reader at 540 nm.
# (§5) Both phases of the experiment were designed as a factorial (concentration level and endpoint temperature) randomized complete block design with three replications. […] Least squares means were generated and Tukey's HSD used to determine significance at P≤0.05.
# [3] = system: nitric oxide synthase system; conditions: pork; for Residual Nitrite, LSMean main effect of Temperature: sodium nitrite
# Protocol: as §3, §4, §5
# [4] = system: nitric oxide synthase system; conditions: 156 ppm sodium nitrite
# Protocol: (§6) After thermal processing and chilling according to USDA-FSIS Appendix A—Thermal processing (71° C.) and B—Cooling procedures (2° C.) guidelines, the frankfurters will be vacuum packaged and stored under refrigeration (2° C.) until analyzed at 0, 14, 28 and 56 days post manufacture.
# The samples were analyzed for residual nitrite after deproteinization by sample preparation for amino acid analysis by HPLC.
# (§7) Samples were vacuum packaged and refrigerated and evaluated on Day 1, 7, 14, 28 and 56 post manufacture. Differences between treatment and control samples will be determined using Tukey's Least Significant Difference procedure at P≤0.05 level. The experiment was replicated three times.
# [5] = system: nitric oxide synthase system; conditions: poultry; for Residual Nitrite, LSMean main effect of Temperature: sodium nitrite
# Protocol: as §3, §4, §5
# NOS system [6] = test: Residual nitrite in test beef frankfurters (Example 12); conditions: 156 ppm sodium nitrite with sodium erythorbate 547 ppm
# Protocol: as §1, §2
# [7] = 156 ppm sodium nitrite
# Protocol: as §6
# Cooked sample water activity was measured (in triplicate) using an Aqualab Model Series 3 water activity meter.
# as §7
# [8] = Phase I, with 547 ppm sodium erythorbate, 120 ppm sodium nitrite
# [9] = Phase I, with 547 ppm sodium erythorbate, 120 ppm sodium nitrite, 132° F.
# [10] = Phase I, with 547 ppm sodium erythorbate, 120 ppm sodium nitrite, 158° F.
# [11] = Phase I, with 547 ppm sodium erythorbate, 120 ppm sodium nitrite, 165° F.
# [12] = Phase I, with 547 ppm sodium erythorbate, 156 ppm sodium nitrite
# [13] = Phase I, with 547 ppm sodium erythorbate, 156 ppm sodium nitrite, 132° F.
# [14] = Phase I, with 547 ppm sodium erythorbate, 156 ppm sodium nitrite, 158° F.
# [15] = Phase I, with 547 ppm sodium erythorbate, 156 ppm sodium nitrite, 165° F.
# [16] = Phase I, with 547 ppm sodium erythorbate, 200 ppm sodium nitrite
# [17] = Phase I, with 547 ppm sodium erythorbate, 200 ppm sodium nitrite, 132° F.
# [18] = Phase I, with 547 ppm sodium erythorbate, 200 ppm sodium nitrite, 158° F.
# [19] = Phase I, with 547 ppm sodium erythorbate, 200 ppm sodium nitrite, 165° F.
# [20] = Phase I, with 547 ppm sodium erythorbate, 132° F.
# [21] = Phase I, with 547 ppm sodium erythorbate, 158° F.
# [22] = Phase I, with 547 ppm sodium erythorbate, 165° F.
# [23] = Phase II, without 547 ppm sodium erythorbate, 120 ppm sodium nitrite
# [24] = Phase II, without 547 ppm sodium erythorbate, 120 ppm sodium nitrite, 132° F.
# [25] = Phase II, without 547 ppm sodium erythorbate, 120 ppm sodium nitrite, 158° F.
# [26] = Phase II, without 547 ppm sodium erythorbate, 120 ppm sodium nitrite, 165° F.
# [27] = Phase II, without 547 ppm sodium erythorbate, 156 ppm sodium nitrite
# [28] = Phase II, without 547 ppm sodium erythorbate, 156 ppm sodium nitrite, 132° F.
# [29] = Phase II, without 547 ppm sodium erythorbate, 156 ppm sodium nitrite, 158° F.
# [30] = Phase II, without 547 ppm sodium erythorbate, 156 ppm sodium nitrite, 165° F.
# [31] = Phase II, without 547 ppm sodium erythorbate, 200 ppm sodium nitrite
# [32] = Phase II, without 547 ppm sodium erythorbate, 200 ppm sodium nitrite, 132° F.
# [33] = Phase II, without 547 ppm sodium erythorbate, 200 ppm sodium nitrite, 158° F.
# [34] = Phase II, without 547 ppm sodium erythorbate, 200 ppm sodium nitrite, 165° F.
# [35] = Phase II, without 547 ppm sodium erythorbate, 132° F.
# [36] = Phase II, without 547 ppm sodium erythorbate, 158° F.
# [37] = Phase II, without 547 ppm sodium erythorbate, 165° F.
smiles,measurement,setting,value
"O=NO [Sodium Nitrite, Sodium nitrite, reference compound]",NO-Heme,NOS system [1],17.88^b ppm
same,Nitrosylation,NOS system [1],94.93^b %
same,Total Heme,NOS system [1],79.11^a ppm
same,Nitrosylation,NOS system [1]; listed as sodium nitrite,94.93%
same,"Residual Nitrite, LSMean main effect of Concentration",[2]; [8],75.33 ppm
same,"Residual Nitrite, LSMean Conc × Temp",[2]; [9],119.32^a ppm
same,"Residual Nitrite, LSMean Conc × Temp",[2]; [10],60.08^bc ppm
same,"Residual Nitrite, LSMean Conc × Temp",[2]; [11],46.59^c ppm
same,"Residual Nitrite, LSMean main effect of Concentration",[2]; [12],81.08 ppm
same,"Residual Nitrite, LSMean Conc × Temp",[2]; [13],107.54^ab ppm
same,"Residual Nitrite, LSMean Conc × Temp",[2]; [14],77.51^abc ppm
same,"Residual Nitrite, LSMean Conc × Temp",[2]; [15],58.18^bc ppm
same,"Residual Nitrite, LSMean main effect of Concentration",[2]; [16],72.05 ppm
same,"Residual Nitrite, LSMean Conc × Temp",[2]; [17],86.41^abc ppm
same,"Residual Nitrite, LSMean Conc × Temp",[2]; [18],47.02^c ppm
same,"Residual Nitrite, LSMean Conc × Temp",[2]; [19],82.73^ab ppm
same,"Residual Nitrite, LSMean main effect of Temperature",[2]; [20],104.42^a ppm and 104.42 ppm
same,"Residual Nitrite, LSMean main effect of Temperature",[2]; [21],61.54^b ppm and 61.54 ppm
same,"Residual Nitrite, LSMean main effect of Temperature",[2]; [22],62.50^b ppm and 62.50 ppm
same,"Residual Nitrite, LSMean main effect of Concentration",[2]; [23],182.18 ppm
same,"Residual Nitrite, LSMean Conc × Temp",[2]; [24],187.92 ppm
same,"Residual Nitrite, LSMean Conc × Temp",[2]; [25],204.95 ppm
same,"Residual Nitrite, LSMean Conc × Temp",[2]; [26],153.68 ppm
same,"Residual Nitrite, LSMean main effect of Concentration",[2]; [27],202.15 ppm
same,"Residual Nitrite, LSMean Conc × Temp",[2]; [28],199.54 ppm
same,"Residual Nitrite, LSMean Conc × Temp",[2]; [29],214.72 ppm
same,"Residual Nitrite, LSMean Conc × Temp",[2]; [30],192.19 ppm
same,"Residual Nitrite, LSMean main effect of Concentration",[2]; [31],196.51 ppm
same,"Residual Nitrite, LSMean Conc × Temp",[2]; [32],184.28 ppm
same,"Residual Nitrite, LSMean Conc × Temp",[2]; [33],202.30 ppm
same,"Residual Nitrite, LSMean Conc × Temp",[2]; [34],202.96 ppm
same,"Residual Nitrite, LSMean main effect of Temperature",[2]; [35],190.58 ppm
same,"Residual Nitrite, LSMean main effect of Temperature",[2]; [36],207.32 ppm
same,"Residual Nitrite, LSMean main effect of Temperature",[2]; [37],182.94 ppm
same,"Residual Nitrite, LSMean main effect of Concentration",[3]; [8],42.30^b ppm and 42.30 ppm
same,"Residual Nitrite, LSMean Conc × Temp",[3]; [9],58.68 ppm
same,"Residual Nitrite, LSMean Conc × Temp",[3]; [10],41.15 ppm
same,"Residual Nitrite, LSMean Conc × Temp",[3]; [11],27.07 ppm
same,"Residual Nitrite, LSMean main effect of Concentration",[3]; [12],62.37^a ppm and 62.37 ppm
same,"Residual Nitrite, LSMean Conc × Temp",[3]; [13],66.93 ppm
same,"Residual Nitrite, LSMean Conc × Temp",[3]; [14],46.37 ppm
same,"Residual Nitrite, LSMean Conc × Temp",[3]; [15],73.82 ppm
same,"Residual Nitrite, LSMean main effect of Concentration",[3]; [16],68.22^a ppm and 68.22 ppm
same,"Residual Nitrite, LSMean Conc × Temp",[3]; [17],63.47 ppm
same,"Residual Nitrite, LSMean Conc × Temp",[3]; [18],57.10 ppm
same,"Residual Nitrite, LSMean Conc × Temp",[3]; [19],84.08 ppm
same,"Residual Nitrite, LSMean main effect of Temperature",[3]; [20],63.03 ppm
same,"Residual Nitrite, LSMean main effect of Temperature",[3]; [21],48.21 ppm
same,"Residual Nitrite, LSMean main effect of Temperature",[3]; [22],61.66 ppm
same,"Residual Nitrite, LSMean main effect of Concentration",[3]; [23],214.53^a ppm and 214.53 ppm
same,"Residual Nitrite, LSMean Conc × Temp",[3]; [24],173.70^ab ppm
same,"Residual Nitrite, LSMean Conc × Temp",[3]; [25],178.90^ab ppm
same,"Residual Nitrite, LSMean Conc × Temp",[3]; [26],164.54^b ppm
same,"Residual Nitrite, LSMean main effect of Concentration",[3]; [27],183.17^b ppm and 183.17 ppm
same,"Residual Nitrite, LSMean Conc × Temp",[3]; [28],208.65^ab ppm
same,"Residual Nitrite, LSMean Conc × Temp",[3]; [29],166.20^b ppm
same,"Residual Nitrite, LSMean Conc × Temp",[3]; [30],174.67^ab ppm
same,"Residual Nitrite, LSMean main effect of Concentration",[3]; [31],172.38^b ppm and 172.38 ppm
same,"Residual Nitrite, LSMean Conc × Temp",[3]; [32],196.48^ab ppm
same,"Residual Nitrite, LSMean Conc × Temp",[3]; [33],232.01^a ppm
same,"Residual Nitrite, LSMean Conc × Temp",[3]; [34],215.08^ab ppm
same,"Residual Nitrite, LSMean main effect of Temperature",[3]; [35],192.61 ppm
same,"Residual Nitrite, LSMean main effect of Temperature",[3]; [36],186.00 ppm
same,"Residual Nitrite, LSMean main effect of Temperature",[3]; [37],185.85 ppm
same,residual sodium nitrite,[4]; Day 1,85.05
same,residual sodium nitrite,[4]; Day 7,74.53
same,residual sodium nitrite,[4]; Day 14,121.03
same,residual sodium nitrite,[4]; Day 28,73.73
same,"Residual Nitrite, LSMean main effect of Concentration",[5]; [8],64.56^b ppm and 64.56 ppm
same,"Residual Nitrite, LSMean Conc × Temp",[5]; [9],66.48 ppm
same,"Residual Nitrite, LSMean Conc × Temp",[5]; [10],68.47 ppm
same,"Residual Nitrite, LSMean Conc × Temp",[5]; [11],58.74 ppm
same,"Residual Nitrite, LSMean main effect of Concentration",[5]; [12],78.51^ab ppm and 78.51 ppm
same,"Residual Nitrite, LSMean Conc × Temp",[5]; [13],80.52 ppm
same,"Residual Nitrite, LSMean Conc × Temp",[5]; [14],85.36 ppm
same,"Residual Nitrite, LSMean Conc × Temp",[5]; [15],69.65 ppm
same,"Residual Nitrite, LSMean main effect of Concentration",[5]; [16],90.59^a ppm and 90.59 ppm
same,"Residual Nitrite, LSMean Conc × Temp",[5]; [17],107.26 ppm
same,"Residual Nitrite, LSMean Conc × Temp",[5]; [18],86.10 ppm
same,"Residual Nitrite, LSMean Conc × Temp",[5]; [19],78.41 ppm
same,"Residual Nitrite, LSMean main effect of Temperature",[5]; [20],84.75^a ppm and 84.75 ppm
same,"Residual Nitrite, LSMean main effect of Temperature",[5]; [21],79.98^ab ppm and 79.98 ppm
same,"Residual Nitrite, LSMean main effect of Temperature",[5]; [22],68.93^b ppm and 68.93 ppm
same,"Residual Nitrite, LSMean Conc × Temp",[5]; [24],171.64^cde ppm
same,"Residual Nitrite, LSMean Conc × Temp",[5]; [25],148.63^e ppm
same,"Residual Nitrite, LSMean Conc × Temp",[5]; [26],162.23^de ppm
same,"Residual Nitrite, LSMean Conc × Temp",[5]; [28],202.54^bc ppm
same,"Residual Nitrite, LSMean Conc × Temp",[5]; [29],177.54^cde ppm
same,"Residual Nitrite, LSMean Conc × Temp",[5]; [30],165.70^cde ppm
same,"Residual Nitrite, LSMean Conc × Temp",[5]; [32],249.27^a ppm
same,"Residual Nitrite, LSMean Conc × Temp",[5]; [33],223.86^ab ppm
same,"Residual Nitrite, LSMean Conc × Temp",[5]; [34],189.46^cd ppm
same,"Residual Nitrite, LSMean main effect of Temperature",[5]; [35],207.82^a ppm and 207.82 ppm
same,"Residual Nitrite, LSMean main effect of Temperature",[5]; [36],183.34^b ppm and 183.34 ppm
same,"Residual Nitrite, LSMean main effect of Temperature",[5]; [37],172.46^b ppm and 172.46 ppm
same,Nitrite,NOS system [6],21.27^a ppm
same,Nitrite,NOS system [6]; listed as sodium nitrite,21.27 ppm and ~18 ppm
same,water activity (Aw),[7]; Day 1,0.979
same,water activity (Aw),[7]; Day 7,0.979
same,water activity (Aw),[7]; Day 14,0.972
same,water activity (Aw),[7]; Day 28,0.978
